Test results: patent US20230068687A1, “PROCESS FOR PREPARING A SOLID FORM OF BASIC AMINO ACID SALTS OF POLYUNSATURATED FATTY ACIDS” (SILICYCLE INC., priority 2020, published 2023)

Legend:
[1] = Stability examination of L-lysine salts stored in clear vials with closed lids at room temperature (Table 1); type: physicochemical; settings: for TOTOX: Totox=2*PV+AV; for AV / PV: closed lids, room temperature
Procedure: The comparison of oxidative status of basic amino acid salts of PUFAs, starting material in ester form and fish oil in free acid form are assessed by measuring the PV and AV, then all the samples are subjected to the same oxidizing condition over a certain period of time, followed by the measuring PV and AV of the samples. The oxidizing conditions are selected from one of: 1) storage in closed containers at atmospheric condition, opened once daily for the first month, twice weekly for the second month, once weekly for the third month and twice a month up to 6 months; 2) storage in loosely closed containers exposed to air at 45° C. for 1 month.
(§1) Food Lab Analyzer: Among several techniques known in the art for determining the oxidative levels of a sample, CDR FoodLab® Junior analyzer is used herein for determining PV and AV. The procedures are described as below.
(§2) The solid product 0.5 g was dissolved in 2 mL of MeOH and HCl solution with the ratio of 1:10 (v/v). The mixture was stirred for 5 minutes, followed by the addition of 5 mL of water. The mixture was extracted with 3 mL of Hexane containing 100 ppm butylated hydroxytoluene (BHT). The organic layer was dried over MgSO4, filtrated and evaporated under reduced pressure at the temperature of 0-70° C. to get the fish oil in free acid form, which was evaluated with the CDR FoodLab® Junior analyzer to get anisidine and peroxide values using the Food Lab analyzer.
(§3) The molar ratio of EPA to L-lysine was 1:1. The mixture was stirred at atmospheric condition for 5 minutes to obtain a homogenous solution. 30 mL of ethanol was added to precipitate the L-lysine amino acid salt. […] About 4.5 g of EPA-Lys was stored in a 20 ml of clear vial with a diameter of 27 mm, which was placed with closed lids on the bench at room temperature for the stability examination for 90 days.
as §3, with “ratio of DHA to L-lysine” for “ratio of EPA to L-lysine”
The molar ratio of seal oil in free acid form to L-lysine was 1:1. The mixture was stirred at atmospheric condition for 5 minutes to obtain a homogenous solution. 35 mL of ethanol was added to precipitate the L-lysine amino acid salt.

[2] = Oxidative status (peroxide value, anisidine value) of starting materials and products as obtained, CDR FoodLab Junior analyzer; type: physicochemical; settings: as obtained / as used, before storage
Procedure: The final product in powder form is isolated by evaporating said first and second organic solvents and water from the reaction mixture to recover said basic amino acid salts of PUFAs. Preferably, said evaporation step is carried under reduced pressure between about 0° C.-70° C. depending on the properties of the equipment used. […] The evaporation step requires said first/second organic solvents and water to be in a liquid form, thereby excluding the freeze-drying methods that require the solvents to be frozen. The oxidative status of the obtained final product is quantified by peroxide value (PV), anisidine value (AV) and Totox value. PV is a measure of the level of the primary oxidation products (lipid hydroperoxides) in the product, which is specified in milliequivalents O2 per kg of sample, while the AV is an unspecific measure of saturated and unsaturated carbonyl compounds. Totox is calculated by the equation Totox=2*PV+AV.
as §1, §2

CC/C=C\C/C=C\C/C=C\C/C=C\C/C=C\C/C=C\CCC(=O)O.NCCCC[C@H](N)C(=O)O [DHA-Lys, L-Lysine Salt of Docosahexaenoic Acid]
TOTOX ([1]; Time 1 d): 61.3 | AV ([1]; Time 1 d): 29.3 A/g | PV ([1]; Time 1 d): 16.0 meq O2/Kg | TOTOX ([1]; Time 61 d): 11.8 | AV ([1]; Time 61 d): 4.0 A/g | PV ([1]; Time 61 d): 3.9 meq O2/Kg | AV (anisidine value) [2]: 29.3 A/g | PV (peroxide value) [2]: 16.0 meqO2/kg

CC/C=C\C/C=C\C/C=C\C/C=C\C/C=C\CCCC(=O)O.NCCCC[C@H](N)C(=O)O [EPA-Lys, L-Lysine Salt of Eicosapentaenoic Acid]
TOTOX ([1]; Time 1 d): 21.5 | AV ([1]; Time 1 d): 9.5 A/g | PV ([1]; Time 1 d): 6.0 meq O2/Kg | TOTOX ([1]; Time 61 d): 3.8 | AV ([1]; Time 61 d): <0.5 A/g | PV ([1]; Time 61 d): 1.9 meq O2/Kg | AV (anisidine value) [2]: 9.5 A/g | PV (peroxide value) [2]: 6.0 meqO2/kg
